In US11168074B2, “Potassium channel inhibitors” (ACESION PHARMA ApS, priority 2017, dated 2021) one finds IC50 data, which are given here for 27 compounds.

This assay addresses T1, human SK3 channel (hKCa2.3) (Homo sapiens, UniProt Q9UGI6).
T1 construct: expressed in transfected cells
Nature of the assay: Automated patch clamping (QPatch 16 HT whole cell patch-clamp). It is filed as cell-based. The settings on record: HEK-293 cells stably expressing hKCa2.3; free calcium 400 nM; effects normalized to N-methyl bicuculline; read-out: IC50 in the Automated patch clamping assay (concentration needed to inhibit half of the SK channel activity). The procedure:
Automated whole cell patch-clamp recordings were performed using a QPatch 16 HT system and single-hole Qplates (Biolin Scientific, Sophion, Denmark) on HEK-293 cells stably expressing the human SK3 channel (hKCa2.3). Cells were cultured and prepared for experiments using normal cell culturing procedures. A total of 4-5 million cells were used per experiment. The Qpatch automatically generates giga sealing, whole-cell formation, compound application and recording of current. hKCa2.3 currents were recorded in symmetrical K^+ solutions, with an intracellular solution consisting of in mM: KCl 108; KOH/EGTA (ethylene glycol-bis(2-aminoethylether)-N,N,N′,N′-tetraacetic acid) 31.25/10; CaCl2 8.1; MgCl2 1.2; HEPES (2-[4-(2-hydroxyethyl)piperazin-1-yl]ethanesulfonic acid) 10; KOH 15, pH adjusted to pH=7.2 with HCl. The free calcium concentration was calculated to 400 nM. The extracellular solution consisted of in mM: KCl 150; CaCl2 0.1; MgCl2 3; HEPES 10; Glucose 10, pH=7.4 with KOH. The cells were held at 0 mV and hKCa2.3 currents were elicited by a linear voltage ramp from −80 mV to +80 mV (200 ms in duration) applied every 5th second. The compound application protocol consisted of 12 recording periods lasting from 50-200 s: 1) Baseline recordings in extracellular solution; 2) Application of the positive control N-methyl bicuculline (100 μM), which is characterized by full efficacy, fast on- and off-rate; 3-4) Wash-out; 5-9) Increasing concentrations of test compound to establish an IC50 value; 10-11) Wash-out; 12) positive control with compound NS8593 (N-[(1R)-1,2,3,4-tetrahydro-1-naphthalenyl]-1H-benzimidazol-2-amine) (1 μM). Data were sampled at 10 kHz, 4th order Bessel filter, cut-off frequency 3 kHz. Currents were compensated for run-down. Potency was quantified as the concentration needed to inhibit half of the SK channel activity and reported as an IC50 value. All effects of compounds of the present invention as tested were normalized to the observed inhibitory effect of N-methyl bicuculline.
In general terms: In patch-clamp work, channel activity is measured electrically.

SMILES strings stand for the structures. Bounds are passed on as bounds.

Consider `CCC(=O)NCC(Nc1nc2ccccc2[nH]1)c1cccc(C(F)(F)F)c1` (single isomer, unassigned) [Example 10a, N-{2-[(1H-1,3-benzodiazol-2-yl)amino]-2-[3-(trifluoromethyl)phenyl]ethyl}propanamide], for which the IC50 is under 10 µM.

Consider `O=C(NCC(Nc1nc2ccccc2[nH]1)c1cccc(C(F)(F)F)c1)c1ccncn1` (stereo not drawn) [Example 5, N-{2-[(1H-1,3-benzodiazol-2-yl)amino]-2-[3-(trifluoromethyl)phenyl]ethyl}pyrimidine-4-carboxamide; trifluoroacetic acid], for which the IC50 is under 10 µM.

Regarding `CC(=O)NCCC(Nc1nc2ccccc2[nH]1)c1cccc(C(F)(F)F)c1` (stereo not drawn) [Example 14, N-{3-[(1H-1,3-benzodiazol-2-yl)amino]-3-[3-(trifluoromethyl)phenyl]propyl}acetamide], the IC50 is under 10 µM. Turning to `O=C(NCC(Nc1nc2ccccc2[nH]1)c1cccc(C(F)(F)F)c1)c1ccon1` (stereo not drawn) [Example 1, N-{2-[(1H-1,3-benzodiazol-2-yl)amino]-2-[3-(trifluoromethyl)phenyl]ethyl}-1,2-oxazole-3-carboxamide], the IC50 was under 10 µM. For the compound `CC(=O)NCCCC(Nc1nc2ccccc2[nH]1)c1cccc(C(F)(F)F)c1` (stereo not drawn) [Example 19, N-{4-[(1H-1,3-benzodiazol-2-yl)amino]-4-[3-(trifluoromethyl)phenyl]butyl}acetamide], the IC50 is under 10 µM.

For `O=C(NCCC(Nc1nc2ccccc2[nH]1)c1cccc(C(F)(F)F)c1)C(F)(F)F` (stereo not drawn) [Example 16, N-{3-[(1H-1,3-benzodiazol-2-yl)amino]-3-[3-(trifluoromethyl)phenyl]propyl}-2,2,2-trifluoroacetamide; formic acid], the IC50 was under 10 µM. The figure for `CC(=O)NCCC(C)(Nc1nc2ccccc2[nH]1)c1cccc(C(F)(F)F)c1` (stereo not drawn) [Example 21, N-{3-[(1H-1,3-benzodiazol-2-yl)amino]-3-[3-(trifluoromethyl)phenyl]butyl}acetamide] is under 10 µM; for `O=C(NCC(Nc1nc2ccccc2[nH]1)c1cccc(C(F)(F)F)c1)C1CCOCC1` (stereo not drawn) [Example 8, N-{2-[(1H-1,3-benzodiazol-2-yl)amino]-2-[3-(trifluoromethyl)phenyl]ethyl}oxane-4-carboxamide] it is under 10 µM; for `CC(=O)NCCC(Nc1nc2ccccc2[nH]1)c1cccc(OC(F)(F)F)c1` (single isomer, unassigned; (-)) [Example 22a, (−)-N-{3-[(1H-1,3-benzodiazol-2-yl)amino]-3-[3-(trifluoromethoxy)phenyl]propyl}acetamide] it is under 10 µM. Under `N#Cc1cccc(C(=O)NCC(Nc2nc3ccccc3[nH]2)c2cccc(C(F)(F)F)c2)c1` (stereo not drawn) [Example 7, N-{2-[(1H-1,3-benzodiazol-2-yl)amino]-2-[3-(trifluoromethyl)phenyl]ethyl}-3-cyanobenzamide] stands under 10 µM; under `O=C(NCCC(Nc1nc2c(CO)cccc2[nH]1)c1cccc(C(F)(F)F)c1)c1ccon1` (stereo not drawn) [Example 15, N-(3-{[4-(hydroxymethyl)-1H-1,3-benzodiazol-2-yl]amino}-3-[3-(trifluoromethyl)phenyl]propyl)-1,2-oxazole-3-carboxamide], under 10 µM. As to `O=C(NCC(Nc1nc2ccccc2[nH]1)c1cccc(C(F)(F)F)c1)C1CC1` (stereo not drawn) [Example 3, N-{2-[(1H-1,3-benzodiazol-2-yl)amino]-2-[3-(trifluoromethyl)phenyl]ethyl}cyclopropanecarboxamide], the IC50 is under 10 µM.

As to `CC(=O)N(C)CCC(Nc1nc2ccccc2[nH]1)c1cccc(C(F)(F)F)c1` (stereo not drawn) [Example 18, N-{3-[(1H-1,3-benzodiazol-2-yl)amino]-3-[3-(trifluoromethyl)phenyl]propyl}-N-methylacetamide], the IC50 was under 10 µM. Turning to `CC(=O)NCCC(Nc1nc2ccccc2[nH]1)c1cccc(OC(F)(F)F)c1` (stereo not drawn) [Example 22, N-{3-[(1H-1,3-benzodiazol-2-yl)amino]-3-[3-(trifluoromethoxy)phenyl]propyl}acetamide], the IC50 is under 10 µM. For `CC(=O)NC(C)CC(Nc1nc2ccccc2[nH]1)c1cccc(C(F)(F)F)c1` (stereo not drawn) [Example 17, N-{4-[(1H-1,3-benzodiazol-2-yl)amino]-4-[3-(trifluoromethyl)phenyl]butan-2-yl}acetamide; trifluoroacetic acid], the IC50 was under 10 µM. The figure for `O=C(NCC(Nc1nc2ccccc2[nH]1)c1cccc(C(F)(F)F)c1)C1CCC1` (stereo not drawn) [Example 2, N-{2-[(1H-1,3-benzodiazol-2-yl)amino]-2-[3-(trifluoromethyl)phenyl]ethyl}cyclobutanecarboxamide] is under 10 µM; for `COCC(=O)NC[C@H](Nc1nc2ccccc2[nH]1)c1cccc(C(F)(F)F)c1` [Example 12, N-[(2R)-2-[(1H-1,3-benzodiazol-2-yl)amino]-2-[3-(trifluoromethyl)phenyl]ethyl]-2-methoxyacetamide] it is under 10 µM; for `O=C(CO)NC[C@H](Nc1nc2ccccc2[nH]1)c1cccc(C(F)(F)F)c1` [Example 13, N-[(2R)-2-[(1H-1,3-benzodiazol-2-yl)amino]-2-[3-(trifluoromethyl)phenyl]ethyl]-2-hydroxyacetamide] it is under 10 µM. In the case of `CCC(=O)NCC(Nc1nc2ccccc2[nH]1)c1cccc(C(F)(F)F)c1` (stereo not drawn) [Example 10, N-{2-[(1H-1,3-benzodiazol-2-yl)amino]-2-[3-(trifluoromethyl)phenyl]ethyl}propanamide], the IC50 is under 10 µM. Turning to `O=C(NCC(Nc1nc2ccccc2[nH]1)c1cccc(C(F)(F)F)c1)c1ccccn1` (stereo not drawn) [Example 6, N-{2-[(1H-1,3-benzodiazol-2-yl)amino]-2-[3-(trifluoromethyl)phenyl]ethyl}pyridine-2-carboxamide; trifluoroacetic acid], the IC50 is under 10 µM. The figure for `O=C1CCCN1CC(Nc1nc2ccccc2[nH]1)c1cccc(C(F)(F)F)c1` (stereo not drawn) [Example 11, 1-{2-[(1H-1,3-benzodiazol-2-yl)amino]-2-[3-(trifluoromethyl)phenyl]ethyl}pyrrolidin-2-one] is under 10 µM.

`O=C(NCC(Nc1nc2ccccc2[nH]1)c1cccc(C(F)(F)F)c1)c1ncon1` (stereo not drawn) [Example 4, N-{2-[(1H-1,3-benzodiazol-2-yl)amino]-2-[3-(trifluoromethyl)phenyl]ethyl}-1,2,4-oxadiazole-3-carboxamide; trifluoroacetic acid]: the IC50 was under 10 µM. Under `O=C(NCC(Nc1nc2ccccc2[nH]1)c1cccc(C(F)(F)F)c1)c1cccc(F)c1` (stereo not drawn) [Example 9, N-{2-[(1H-1,3-benzodiazol-2-yl)amino]-2-[3-(trifluoromethyl)phenyl]ethyl}-3-fluorobenzamide] stands under 10 µM. Under `CC(=O)NCCCC(Nc1nc2cc(F)ccc2[nH]1)c1cccc(C(F)(F)F)c1` (stereo not drawn) [Example 20, N-{4-[(5-fluoro-1H-1,3-benzodiazol-2-yl)amino]-4-[3-(trifluoromethyl)phenyl]butyl}acetamide] stands under 10 µM; under `CC(=O)NCCC(Nc1nc2ccccc2[nH]1)c1cccc(C(F)(F)F)c1` (single isomer, unassigned; (-)) [Example 14a, (−)-N-{3-[(1H-1,3-benzodiazol-2-yl)amino]-3-[3-(trifluoromethyl)phenyl]propyl}acetamide], under 10 µM. Regarding `CC(=O)NCCCC(Nc1nc2ccccc2[nH]1)c1cccc(C(F)(F)F)c1` (single isomer, unassigned; (-)) [Example 19a, (−)-N-{4-[(1H-1,3-benzodiazol-2-yl)amino]-4-[3-(trifluoromethyl)phenyl]butyl}acetamide], the IC50 is under 10 µM. On to `CC(=O)N(C)CCC(Nc1nc2ccccc2[nH]1)c1cccc(C(F)(F)F)c1` (single isomer, unassigned; (-)) [Example 18a, (−)-N-{3-[(1H-1,3-benzodiazol-2-yl)amino]-3-[3-(trifluoromethyl)phenyl]propyl}-N-methylacetamide], for which the IC50 was under 10 µM.
